Laboratory results published in patent US10358454B2, “Marinopyrrole derivatives and methods of making and using same” (H. LEE MOFFITT CANCER CENTER AND RESEARCH INSTITUTE, INC., priority 2014, dated 2019).
“Also recorded” adds a separate entry of the source. Where two headings read alike, the source gives them in different places.

Key:
Mcl-1/Bim = Mcl-1/Bim (Homo sapiens, UniProt Q07820); assay: Mcl-1/Bim ELISA (GST-Mcl-1 binding to biotinylated Bim BH3 peptide); settings: for selectivity for Mcl-1 over Bcl-xL (Mcl-1/Bim over Bcl-xL/Bim): ratio of ELISA IC50 values
Chain of Mcl-1/Bim (Q07820 whole entry): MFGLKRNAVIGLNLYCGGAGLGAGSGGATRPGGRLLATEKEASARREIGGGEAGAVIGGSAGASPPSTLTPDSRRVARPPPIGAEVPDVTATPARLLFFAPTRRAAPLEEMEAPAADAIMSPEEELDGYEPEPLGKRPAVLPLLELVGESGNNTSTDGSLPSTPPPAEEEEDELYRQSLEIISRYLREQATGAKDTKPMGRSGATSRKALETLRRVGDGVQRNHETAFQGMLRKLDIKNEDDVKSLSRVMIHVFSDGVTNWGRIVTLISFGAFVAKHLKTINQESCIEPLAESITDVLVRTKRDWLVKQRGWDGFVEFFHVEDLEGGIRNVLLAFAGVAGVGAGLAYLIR
Procedure: (§1) ELISAs were performed using a modified version of a previously described procedure (Doi K et al. J. Biol. Chem. 2012, 287, 10224-10235). Briefly, 40 nM of biotinylated Bim BH3 peptide (Biomatik) in SuperBlock blocking buffer (Pierce) was incubated in high-binding capacity streptavidin-coated plates (Pierce) for 2 h. Compounds were diluted in 120 μl of PBS containing 10 nM of GST-Mcl-1 or GST-Bcl-xL in 1.5 mL tubes for 15 min. Wells were washed with wash buffer (PBS containing 0.05% Tween-20) and then 100 μL of the compound/GST-protein mixture was transferred to the wells. The plates were incubated for 2 h, and then the wells were washed with wash buffer. HRP-conjugated anti-GST antibody (Bethyl Laboratories) was diluted 1:2000 in SuperBlock and 100 μL was transferred to each well. The plate was incubated for 1 h, and then the wells were washed with wash buffer followed by PBS. 100 μL of SureBlue TMB Microwell Peroxidase Substrate (VWR) was added to each well and plates were developed for 5-10 min. 100 μL of 1 N HCl was added to each well to stop the reaction and absorbance was read at 450 nm using a μQuant plate reader (Bio-Tek).
(§2) ELISAs were performed using a similar procedure as previously described (Doi K, et al. J. Biol. Chem. 2012, 287, 10224-10235). Briefly, 40 nM of biotinylated Bim BH3 peptide (Biomatik) in SuperBlock blocking buffer (Pierce) was incubated in high-binding capacity streptavidin-coated plates (Pierce) for 2 h. Compounds were diluted in 120 μl of PBS containing 10 nM of GST-Mcl-1 or GST-Bcl-xL in 1.5 mL tubes for 15 min. Wells were washed with wash buffer (PBS containing 0.05% Tween-20) and then 100 μL of the compound/GST-protein mixture was transferred to the wells. The plates were incubated for 2 h, and then wells were washed with wash buffer. HRP-conjugated anti-GST antibody (Bethyl Laboratories) was diluted 1:2000 in SuperBlock and 100 μL was transferred to each well. The plate was incubated for 1 h, and then wells were washed with wash buffer followed by PBS. 100 μL of SureBlue TMB Microwell Peroxidase Substrate (VWR) was added to each well and plates were developed for 5-10 min. 100 μL of 1 N HCl was added to each well to stop the reaction and absorbance was read at 450 nm using μQuant plate reader (Bio-Tek).

Bcl-xL/Bim = Bcl-xL/Bim (Homo sapiens, UniProt Q07817); assay: Bcl-xL/Bim ELISA (GST-Bcl-xL binding to biotinylated Bim BH3 peptide)
Chain of Bcl-xL/Bim (Q07817 whole entry): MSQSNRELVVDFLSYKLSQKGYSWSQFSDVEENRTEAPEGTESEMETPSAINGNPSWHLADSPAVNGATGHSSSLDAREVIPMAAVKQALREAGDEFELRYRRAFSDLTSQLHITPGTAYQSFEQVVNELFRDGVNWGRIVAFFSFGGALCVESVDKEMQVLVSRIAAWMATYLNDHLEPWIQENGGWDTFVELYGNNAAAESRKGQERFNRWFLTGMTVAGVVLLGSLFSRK
Procedure: as §1, §2

[1] = tested on: human breast cancer MDA-MB-468 cells; assay: Western blotting of MDA-MB-468 cells treated with marinopyrrole derivatives (Mcl-1, Bim, caspase 3); type: cell-based; settings: 10 μM for 16 h
Procedure: The cells were then processed for western blotting according to a previously described methods (Balasis M E et al. Clin. Cancer Res. 2011, 17, 2852-2862). […] However, none of the cyclic marinopyrroles were active in intact cells.
as §1

Solubility = settings: aqueous solubility
[2] = Stability in 1 M NaOH at room temperature, HPLC analysis; settings: for remained intact: after 48 hours
[3] = pKa and log p calculated using ChemAxon Software Version 5.12.3; settings: difference to phenol pKa […]
Procedure: Both pKa and log p values were calculated using ChemAxon Software Version 5.12.3 (Dixon S L and Jurs P C. J. Comp. Chem. 1993, 14, 1460-1467; Csizmadia F et al. J. Pharm. Sci. 1997, 86, 865-871).

[4] = tested on: Bim/Mcl-1 and Bim/Bcl-xL in MDA-MB-468 cancer cells; assay: Co-immunoprecipitation and densitometry of Bim/Mcl-1 and Bim/Bcl-xL in treated cells; type: cell-based, human; settings: compared with 1
MDA-MB-468 cells [5] = assay: Western blots of MDA-MB-468 cells treated with 1 and I-2 (Bcl-2 family proteins, Caspase 3 and PARP cleavage); type: cell-based, human
MDA-MB-468 cells [6] = assay: MTT assay (anchorage-dependent proliferation); type: cell-based, human; settings: 48 hours, compared with 1
[7] = tested on: A-549 human lung cancer cells; assay: MTT assay (anchorage-dependent proliferation); type: cell-based; settings: 48 hours, compared with 1
MDA-MB-468 cells [8] = assay: Soft agar assay (anchorage-independent growth); type: cell-based, human; settings: 21 days, compared with 1
[9] = tested on: A-549 human lung cancer cells; assay: Soft agar assay (anchorage-independent growth); type: cell-based; settings: 21 days, compared with 1
A-549 xenografts = A-549 xenografts in nude mice; type: in vivo; settings: 4 mpk/day for 14 days
[10] = tested on: cultured human cancer cells; assay: Induction of apoptosis in cultured human cancer cells; type: cell-based; settings: intact cell studies
Mcl-1 [11] = biological target: T1, Mcl-1 (Homo sapiens, UniProt Q07820); assay: Fluorescence-quenching (FQ) assay based on intrinsic Trp fluorescence of Mcl-1; type: binding; settings: for Kd: binding isotherms, read-out: Kd (binding constant)
Excerpt: To investigate direct binding of compounds to Mcl-1, a fluorescence-quenching (FQ) assay based on the intrinsic Trp fluorescence of Mcl-1 was established.
Target sequence in this assay (Q07820 whole entry): as the sequence (Q07820 whole entry) above

Mcl-1 [12] = biological target: T1, Mcl-1; assay: 15N-HSQC NMR chemical shift perturbation with docking; type: binding; design: MBP (cleaved yes); made in house; host or cells: E. coli BL21(DE3) Codon+; settings: HSQC chemical shift changes
Procedure: ^15N-HSQC spectra were recorded on ^15N-labelled Mcl-1 at 0.1 mM prepared in 50 mM potassium phosphate solution at pH 6.5, 50 mM NaCl and 1 mM DTT. Titrations up to 100 μM of 1-21 and 1-18 compounds were performed. NMR spectra were acquired at 25° C. on an Inova 600 MHz spectrometer equipped with a cryoprobe and analyzed in CCPNMR (Vranken W F, et al. Proteins. 2005, 59, 687-696).
NMR-guided docking of 1-21 into the X-ray crystal structure of Mcl-1 (PDB ID: 3KJ0) was performed using Glide (Maestro, Schrodinger) (Friesner R A et al. J. Med. Chem. 2004, 47, 1739-1749; Friesner R A, et al. J. Med. Chem. 2006, 49, 6177-6196; Halgren T A, et al. J. Med. Chem. 2004, 47, 1750-1759; Gavathiotis E, et al. Nat. Chem. Biol. 2012, 8, 639-645). The lowest-energy docking pose is consistent with the observed NMR-chemical shift perturbation data. Pymol is used for preparing the highlighted poses.
Structural characterization of I-20 and II-4 was performed using NMR. HSQC spectra were collected at different ratios of compound:Mcl-1. […] The residues that undergo chemical shift changes upon compounds' binding onto the structure of Mcl-1 and the compounds' binding location were mapped (FIG. 6B). An induced fit molecular docking approach guided by the NMR chemical shifts was used to determine the structural models of the compounds bound to Mcl-1 using Glide software (Schrodinger; FIG. 6C). […]
Target sequence in this assay (Q07820 172-327): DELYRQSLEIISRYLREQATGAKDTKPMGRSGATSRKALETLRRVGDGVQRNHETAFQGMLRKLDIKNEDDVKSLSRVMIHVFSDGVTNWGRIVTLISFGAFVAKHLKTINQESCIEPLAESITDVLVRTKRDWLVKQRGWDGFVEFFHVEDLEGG

[13] = Table 2-A, n ≥ 3, read-out: Mcl-1/Bim IC50 (average ± SEM)
[14] = Table 2-B, n ≥ 3, read-out: Mcl-1/Bim IC50 (average ± SEM)
[15] = Table 3-A structure I, Mcl-1 at 10 nM, n ≥ 3, read-out: Mcl-1-Bim IC50 (average ± SEM)
[16] = read-out: IC50 to inhibit the binding of Mcl-1 to Bim
[17] = Table 2-A, n ≥ 3, read-out: Bcl-xL/Bim IC50 (average ± SEM)
[18] = Table 2-B, n ≥ 3 unless specified, read-out: Bcl-xL/Bim IC50 (average ± SEM)
[19] = Table 3-A structure I, Bcl-xL at 10 nM, n ≥ 3, read-out: Bcl-xL-Bim IC50 (average ± SEM)

IC50 (Mcl-1/Bim; [15]) [µM] | IC50 (Mcl-1/Bim; [16]) [µM] | IC50 (Bcl-xL/Bim; [19]) [µM] | activity against Bcl-xL/Bim in words (Bcl-xL/Bim) | direct binding to Mcl-1 by fluorescence quenching (Mcl-1 [11]) | Kd (Mcl-1 [11]) [µM] | Structure (SMILES) | IC50 (Mcl-1/Bim; [13]) [µM] | IC50 (Mcl-1/Bim; [14]) [µM] | selectivity for Mcl-1 over Bcl-xL (Mcl-1/Bim over Bcl-xL/Bim) (Mcl-1/Bim) [fold] | IC50 (Bcl-xL/Bim; [17]) [µM] | IC50 (Bcl-xL/Bim; [18]) [µM] | effect on levels of Mcl-1 and Bim and cleavage of caspase 3 [1] | solubility in words (Solubility) | remained intact [2] [%] | other results
3.9 ± 0.2 | 3.7 | 5.6 ± 0.5 | more potent than 1 | – | – | C#Cc1ccc(C(=O)c2[nH]c(Cl)c(Cl)c2-n2c(C(=O)c3ccc(C#C)cc3O)cc(Cl)c2Cl)c(O)c1 [Compound 1-3, (4,4′,5,5′-Tetrachloro-1′H-1,3′-bipyrrole-2,2′-diyl)bis((4-ethynyl-2-hydroxyphenyl)methanone)] | – | 3.9 ± 0.2 | – | – | 5.6 ± 0.5 | – | – | 81 | activity against Mcl-1/Bim in words (Mcl-1/Bim): more potent than 1; selectivity profile Mcl-1 vs Bcl-xL in words (Mcl-1/Bim; from Mcl-1/Bim and Bcl-xL/Bim ELISA): dual Mcl-1 and Bcl-XL antagonists; inhibition of binding of Mcl-1 and Bcl-xL to Bim in cells [4]: more potent than 1; effect on Bcl-2 and Bax levels (MDA-MB-468 cells [5]): little effects; effect on Bim level (MDA-MB-468 cells [5]): slightly decreased; decreasing levels of Mcl-1 and Bcl-xL and increasing levels of Bak and Bad (MDA-MB-468 cells [5]; compared with 1): more potent than 1; inducing apoptosis (Caspase 3 and PARP cleavage) (MDA-MB-468 cells [5]; compared with 1): more potent than 1; inhibiting anchorage-dependent proliferation (MTT) (MDA-MB-468 cells [6]): more potent than 1; inhibiting anchorage-dependent proliferation (MTT) [7]: more potent than 1; inhibiting anchorage-independent proliferation (soft agar) (MDA-MB-468 cells [8]): more potent than 1; inhibiting anchorage-independent proliferation (soft agar) [9]: more potent than 1; effect on the body weights of the mice (A-549 xenografts): little effect; increase of tumor volumes from day 1 to day 14 (A-549 xenografts; vehicle-treated mice 160±10%): 45±30%; induction of apoptosis [10]: induced apoptosis
– | 5.2 | – | not active | directly bind to Mcl-1 | 2.5 | O=C(O)Cn1cc(-c2cc(O)c(C(=O)c3[nH]c(Cl)c(Cl)c3-n3c(C(=O)c4cc(Cl)c(-c5cn(CC(=O)O)nn5)cc4O)cc(Cl)c3Cl)cc2Cl)nn1 [Compound 1-19, 2,2′-(4,4′-((4,4′,5,5′-Tetrachloro-1′H-1,3′-bipyrrole-2,2′-dicarbonyl)bis(2-chloro-5-hydroxy-4,1-phenylene))bis(1H-1,2,3-triazole-4,1-diyl))diacetic acid] | 5.2 ± 0.8 | – | 9.6 | > 50 | – | – | – | – | IC50 (Mcl-1/Bim; Table 3-B structure II, n ≥ 3, read-out: Mcl-1-Bim IC50 (average ± SEM)): 5.2 ± 0.8 µM; IC50 (Bcl-xL/Bim; Table 3-B structure II, n ≥ 3, read-out: Bcl-xL-Bim IC50 (average ± SEM)): > 50 µM; binding to Mcl-1 by NMR (Mcl-1 [12]; listed as II-4): binding to the BH3 pocket of Mcl-1; also recorded: confirmed binding to Mcl-1
10.9 ± 3.1 | – | 27.3 ± 7.2 | less active | directly bind to Mcl-1 | 3.5 | O=C(c1ccc(P(=O)(O)O)cc1O)c1[nH]c(Cl)c(Cl)c1-n1c(C(=O)c2ccc(P(=O)(O)O)cc2O)cc(Cl)c1Cl [Compound I-20, ((4,4′,5,5′-Tetrachloro-1′H-[1,3′-bipyrrole]-2,2′-dicarbonyl)bis(3-hydroxy-4,1-phenylene))diphosphonic acid] | – | – | – | – | – | little effect on Mcl-1, Bim or caspase 3 | improvement in aqueous solubility | – | activity against Mcl-1/Bim in words (Mcl-1/Bim; listed as 8a): slightly less potent than 1; also recorded: less active; binding to Mcl-1 by NMR (Mcl-1 [12]): binding to the BH3 pocket of Mcl-1; also recorded: confirmed binding to Mcl-1

Structure (SMILES) | IC50 (Mcl-1/Bim; [15]) [µM] | IC50 (Mcl-1/Bim; [16]) [µM] | IC50 (Bcl-xL/Bim; [19]) [µM] | activity against Bcl-xL/Bim in words (Bcl-xL/Bim) | direct binding to Mcl-1 by fluorescence quenching (Mcl-1 [11]) | Kd (Mcl-1 [11]) [µM] | IC50 (Mcl-1/Bim; [13]) [µM] | IC50 (Mcl-1/Bim; [14]) [µM] | selectivity for Mcl-1 over Bcl-xL (Mcl-1/Bim over Bcl-xL/Bim) (Mcl-1/Bim) [fold] | IC50 (Bcl-xL/Bim; [17]) [µM] | IC50 (Bcl-xL/Bim; [18]) [µM] | effect on levels of Mcl-1 and Bim and cleavage of caspase 3 [1] | solubility in words (Solubility) | remained intact [2] [%] | other results
O=C(c1ccccc1O)c1[nH]c(Cl)c(Cl)c1-n1c(C(=O)c2ccccc2O)cc(Cl)c1Cl (racemic) [(±)-1, (±)-marinopyrrole A, reference compound] | 8.9 ± 1 | 8.9 | 16.4 ± 3.3 | – | – | – | 8.9 ± 1 | 8.9 ± 1 | 1.8 | 16.4 ± 3.3 | 16.4 ± 3.3 | able to decrease Mcl-1 and Bim and to cleave caspas 3 | poor solubility | 76 | IC50 (Mcl-1/Bim; Table 1, Mcl-1 at 10 nM, n ≥ 3, read-out: Mcl-1-Bim IC50 (average ± SEM)): 8.9 ± 1 µM; selectivity for Mcl-1 over Bcl-xL (Mcl-1/Bim over Bcl-xL/Bim) (Mcl-1/Bim; listed as marinopyrrole A): two fold; IC50 (Bcl-xL/Bim; Table 1, Bcl-xL at 10 nM, n ≥ 3, read-out: Bcl-xL-Bim IC50 (average ± SEM)): 16.4 ± 3.3 µM; IC50 (Bcl-xL/Bim; read-out: IC50 to inhibit Bcl-xL/Bim binding): 16.4 µM; stability in words ([2]; 1 to 48 hours): highly stable; pKa values lower than that of phenol [3]: 1.6-2.2 log units
